Each structure is given as a SMILES string. Where a name gives a salt, the structure may show the parent alone.

The target of the first assay is LSD1 (Homo sapiens, UniProt O60341). In words: Biochemical assay for LSD1 activity (LSD1 demethylase TR-FRET).
Conditions: not given
In turn, `CC(=Cc1ccc(C#N)cc1)C1CC1N` (centres unmarked) [Compound 129, 4-(2-(2-aminocyclopropyl)prop-1-en-1-yl)benzonitrile Hydrochloride] had an IC50 above 10000 nM.

The same assay, now with this note: Table 5; biotinylated H3K4me1 peptide, 50 minutes at room temperature, TR-FRET; read-out: LSD1_Pep_TR-FRET_1.0 (IC50 T50).
Take `C(=C\C1CC1NCC1CCN(Cc2ccccc2)CC1)/c1ccccc1` (centres unmarked) [Compound 106]: the 50% inhibitory concentration (IC50) lay in the range of 100 to 1000 nM.
Still for that read-out and setting: for `O=C(O)CN1CCC(CNC2CC2/C=C/c2ccccc2)CC1` (centres unmarked) [Compound 111, (E)-3-(4-(((2-styrylcyclopropyl)amino)methyl)piperidin-1-yl)acetic acid] the value was below 100 nM.

Still in this assay, the particulars now being: Table 6; biotinylated H3K4me1 peptide, 50 minutes at room temperature, TR-FRET; read-out: LSD1_Pep_TR-FRET_1.0 (IC50 T50).
With `CC/C(=C\c1ccccc1)[C@@H]1C[C@H]1N[C@H]1CC[C@H](NCC2(CO)COC2)CC1` (single isomer, unassigned) [Compound 161, (3-((((trans)-4-(((trans)-2-((E)-1-phenylbut-1-en-2-yl)cyclopropyl)amino)cyclohexyl)amino)methyl)oxetan-3-yl)methanolbis(trifluoroacetic acid salt)], the IC50 was below 100 nM.
On to `CC(C)/C(=C\c1ccccc1)[C@H]1C[C@@H]1N[C@H]1CC[C@H](N)CC1` (racemic) [Compound 178, (trans)-N^1-((trans)-2-(E)-3-methyl-1-phenylbut-1-en-2-yl)cyclopropyl)cyclohexane-1,4-diamine Dihydrochloride], for which the IC50 was below 100 nM.
On to `C/C(=C\c1ccccc1)[C@@H]1C[C@H]1NC1CCN(Cc2ccc(C(N)=O)cc2)CC1` (racemic) [Compound 137, 4-((4-(((trans)-2-((E)-1-phenylprop-1-en-2-yl)cyclopropyl)amino)piperidin-1-yl)methyl)benzamide dihydrochloride], for which the IC50 was below 100 nM.
The same measure, in the same setting: the same measure for `Fc1ccccc1/C=C/C1CC1NCC1CCNCC1` (centres unmarked) [Compound 186, (E)-2-(2-fluorostyryl)-N-(piperidin-4-ylmethyl)cyclopropan-1-amine Dihydrochloride]: below 100 nM; for `C/C(=C\c1ccccc1)[C@@H]1C[C@H]1NC1CCN(CCO)CC1` (racemic) [Compound 201, 2-(4-(((trans)-2-((E)-1-phenylprop-1-en-2-yl)cyclopropyl)amino)piperidin-1-yl)ethan-1-ol Dihydrochloride]: below 100 nM; for `CNC(=O)c1ccc(CN2CCC(N[C@@H]3C[C@H]3/C(C)=C/c3ccccc3)CC2)cc1` (racemic) [Compound 136, N-methyl-4-((4-(((trans)-2-((E)-1-phenylprop-1-en-2-yl)cyclopropyl)amino)piperidin-1-yl)methyl)benzamide dihydrochloride]: below 100 nM.
On the same count and under the same terms, the same measure for `CC/C(=C\c1ccccc1)[C@@H]1C[C@H]1N[C@H]1CC[C@@H](NCC(=O)O)CC1` (racemic) [Compound 183, 2-(((cis)-4-(((trans)-2-((E)-1-phenylbut-1-en-2-yl)cyclopropyl)amino)cyclohexyl)amino)acetic Acid]: below 100 nM.
As to `C/C(=C\c1ccccc1)[C@@H]1C[C@H]1N[C@H]1CC[C@@H](NCC(C)(C)C(=O)O)CC1` (single isomer, unassigned) [Compound 149, 2,2-dimethyl-3-(((cis)-4-(((trans)-2-((E)-1-phenylprop-1-en-2-yl)cyclopropyl)amino)cyclohexyl)amino)propanoic acid bis(trifluoroacetic acid) salt], the IC50 was below 100 nM.
`C/C(=C\c1ccccc1)[C@@H]1C[C@H]1NC1CCN(Cc2ccc(C(=O)O)cn2)CC1` (racemic) [Compound 203, 6-((4-(((trans)-2-((E)-1-phenylprop-1-en-2-yl)cyclopropyl)amino)piperidin-1-yl)methyl)nicotinic Acid Dihydrochloride]: the IC50 is below 100 nM.
The same measure, in the same setting: the same measure for `CNC(=O)CCCN[C@H]1CC[C@@H](N[C@@H]2C[C@H]2/C(C)=C/c2ccccc2)CC1` (single isomer, unassigned) [Compound 145, N-methyl-4-(((cis)-4-(((trans)-2-((E)-1-phenylprop-1-en-2-yl)cyclopropyl)amino)cyclohexyl)amino)butanamide bis(trifluoroacetic acid) salt]: below 100 nM.
Same read-out and setting: the same measure for `C/C(=C\c1ccccc1)[C@@H]1C[C@H]1N[C@H]1CC[C@@H](NCCCC(=O)O)CC1` (racemic) [Compound 165, 4-(((cis)-4-(((trans)-2-((E)-1-phenylprop-1-en-2-yl)cyclopropyl)amino)cyclohexyl)amino)butanoic Acid bis(trifluoroacetic Acid) Salt]: below 100 nM; for `CC/C(=C\c1ccccc1)[C@@H]1C[C@H]1N[C@H]1CC[C@H](N)CC1` (racemic) [Compound 169, (trans)-N^1-((trans)-2-((E)-1-phenylbut-1-en-2-yl)cyclopropyl)cyclohexane-1,4-diamine Dihydrochloride]: below 100 nM.
Still for that read-out and setting: the same measure for `CC/C(=C\c1ccccc1)[C@@H]1C[C@H]1N[C@H]1CC[C@H](NCCCC(=O)O)CC1` (relative stereo) [Compound 180, 4-(((trans)-4-(((trans)-2-((E)-1-phenylbut-1-en-2-yl)cyclopropyl)amino)cyclohexyl)amino)butanoic Acid bis(trifluoroacetic Acid) Salt]: below 100 nM.
As to `C/C(=C\c1ccccc1)[C@@H]1C[C@H]1NC1CCN(Cc2ccc(C(=O)O)cc2)CC1` [compound 192], the IC50 was in the range of 100 to 1000 nM.
Still for that read-out and setting: for `CC/C(=C\c1ccccc1)[C@@H]1C[C@H]1N[C@H]1CC[C@H](NCC2(C(=O)O)CC2)CC1` (racemic) [Compound 223, 1-((((trans)-4-(((trans)-2-((E)-1-phenylbut-1-en-2-yl)cyclopropyl)amino)cyclohexyl)amino)methyl)cyclopropane-1-carboxylic Acid] the value was below 100 nM; for `C/C(=C\c1ccccc1)[C@@H]1C[C@H]1NC1CCN(CCC(=O)O)CC1` (racemic) [Compound 199, 3-(4-(((trans)-2-((E)-1-phenylprop-1-en-2-yl)cyclopropyl)amino)piperidin-1-yl)propanoic Acid Dihydrochloride], below 100 nM; for `CC/C(=C\c1ccccc1)[C@@H]1C[C@H]1N[C@H]1CC[C@H](NCCO)CC1` (single isomer, unassigned) [Compound 159, 2-(((trans)-4-(((trans)-2-((E)-1-phenylbut-1-en-2-yl)cyclopropyl)amino)cyclohexyl)amino)ethan-1-ol bis(trifluoroacetic acid salt)], below 100 nM.
Regarding `CC(=Cc1ccc(C#N)cc1)C1CC1N[C@H]1CC[C@H](N)CC1` (relative stereo) [Compound 132, 4-(2-(2-(((trans)-4-aminocyclohexyl)amino)cyclopropyl)prop-1-en-1-yl)benzonitrile Dihydrochloride], the IC50 was above 10000 nM.
With `CC(C)/C(=C\c1ccccc1)[C@@H]1C[C@H]1NC1CCN(Cc2ccc(C(=O)O)cc2)CC1` (racemic) [Compound 179, 4-((4-(((trans)-2-((E)-3-methyl-1-phenylbut-1-en-2-yl)cyclopropyl)amino)piperidin-1-yl)methyl)benzoic Acid bis(trifluoroacetic Acid) Salt], the IC50 was below 100 nM.
For the compound `C/C(=C\c1ccccc1)[C@@H]1C[C@H]1NC1CCN(CC(=O)O)CC1` (racemic) [Compound 194, 2-(4-(((trans)-2-((E)-1-phenylprop-1-en-2-yl)cyclopropyl)amino)piperidin-1-yl)acetic Acid Dihydrochloride], the IC50 was below 100 nM.
On the same count and under the same terms, for `CC/C(=C\c1ccccc1)[C@@H]1C[C@H]1N[C@H]1CC[C@@H](N)CC1` (racemic) [Compound 168, (cis)-N^1-((trans)-2-((E)-1-phenylbut-1-en-2-yl)cyclopropyl)cyclohexane-1,4-diamine Dihydrochloride] the value was below 100 nM.

The assay is the same for the next values; noted with them: Table 7; biotinylated H3K4me1 peptide, 50 minutes at room temperature, TR-FRET; read-out: LSD1_Pep_TR-FRET_1.0 (IC50 T50).
As for `CC/C(=C\c1ccccc1)[C@@H]1C[C@H]1NC1CC2(C1)CN(CC(C)(C)C(=O)O)C2` (racemic) [Compound 229], the IC50 was below 100 nM.
Still for that read-out and setting: for `CC/C(=C\c1ccccc1)[C@@H]1C[C@H]1NC1CC2(C1)CN(Cc1cnc(C(=O)O)cn1)C2` (single isomer, unassigned) [Compound 256] the value was below 100 nM; for `CC/C(=C\c1ccccc1)[C@@H]1C[C@H]1NC1CC2(C1)CN(Cc1ccc(-c3nnn[nH]3)cc1)C2` (single isomer, unassigned) [Compound 252], below 100 nM.
The same measure, in the same setting: for `CC/C(=C\c1ccccc1)[C@@H]1C[C@H]1NC1CC2(C1)CN(CC(N)=O)C2` (single isomer, unassigned) [Compound 268, 2-(6-(((1R,2S or 1S,2R)-2-(E)-1-phenylbut-1-en-2-yl)cyclopropyl)amino)-2-azaspiro[3.3]heptan-2-yl)acetamide Bis Trifluoroacetate (Single Stereoisomer)] the value was below 100 nM.
On the same count and under the same terms, the same measure for `CC/C(=C\c1ccccc1)[C@@H]1C[C@H]1NC1CC2(C1)CN(Cc1ccc(C(=O)O)cc1)C2` (single isomer, unassigned) [Compound 250]: below 100 nM; for `CC/C(=C\c1ccccc1)[C@@H]1C[C@H]1NC1CC2(C1)CN(Cc1ccc(C(=O)O)cn1)C2` (single isomer, unassigned) [Compound 249, 6-((6-(((1R,2S or 1S,2R)-2-(E)-1-phenylbut-1-en-2-yl)cyclopropyl)amino)-2-azaspiro[3.3]heptan-2-yl)methyl)nicotinic Acid Bis Trifluoroacetate]: below 100 nM.
As to `CC/C(=C\c1ccccc1)[C@@H]1C[C@H]1NC1CC2(C1)CN(CCC(=O)O)C2` (racemic) [Compound 230], the IC50 is below 100 nM.
The same measure, in the same setting: for `CC/C(=C\c1ccccc1)[C@@H]1C[C@H]1NC1CC2(CCN(Cc3ccc(C(=O)O)cc3)CC2)C1` (racemic) [Compound 227, 4-((2-(((trans)-2-((E)-1-phenylbut-1-en-2-yl)cyclopropyl)amino)-7-azaspiro[3.5]nonan-7-yl)methyl)benzoic acid dihydrochloride] the value was below 100 nM.

(Values after patent US10526287B2, “LSD1 inhibitors and uses thereof” (Constellation Pharmaceuticals, Inc., priority 2015, dated 2020).)
